In patent publication US20070203248A1, “Cardioprotective agents” (DABUR RESEARCH FOUNDATION., priority 2003, published 2007):
“And” between values parts separate entries of the source, which are not always exact repeats. Equal entries are not always repeated. Where two headings read alike, the source gives them in different places.

Key:
[1] = system: Adriamycin treated animals
Method: The effect of 5-Methoxytryptamine on circulating LDH levels was quantitated as described. Briefly male Wistar rats of the age group 5-6 weeks were maintained on normal rat pellets ad libidum. Rats were divided into four groups viz. Groups I, II, III and IV.
(§1) Group II: Animals treated with Adriamycin
(§2) Group III: Animals treated with Adriamycin and 5-Methoxytryptamine
(§3) Group IV: Animals treated with 5 Methoxytryptamine
Each group consisted of 6 animals. 5 mg/kg of Adriamycin was administered intraperitoneally to animals of groups II and III as two equal divided doses once every seven days. The animals comprising Group III were injected intraperitoneally with 17.5 mg/kg of 5-Methoxytryptamine, as seven equal doses given every alternate day. The animals of the group III were injected with 5-Methoxytryptamine, 30 minutes prior to the Adriamycin injection. The animals comprising Group IV were treated with 17.5 mg/kg of 5-Methoxytryptamine as seven equal doses, given every alternate day. At the 41st day of the study, blood was collected from the retroorbital vein of all the animals in the study. The blood was kept at room temperature for 15 minutes, and spun at 3000 rpm for 15 minutes. […] The quantitation was carried out by kits procured from Bayer Diagnostics using RA 50 Chemistry Analyzer (Bayer Diagnostics), as per the manufacturer's instructions.

human tumour cell lines = experiment: MTT cytotoxicity assay, effect of 5-Methoxytryptamine on anticancer activity of Adriamycin; assay type: cell-based; details: 5-Methoxytryptamine at its highest concentration 1 ug/ml; MCF7, DU145, MiaPaCa2, HT 29
Method: Adriamycin was dissolved in saline immediately before use. […] 1 ug/ml.

[2] = system: Adriamycin treated rat myocardium; details: for SOD (Superoxide Dismutase), myocardium: 24 hours
Method: (§4) Briefly male Wistar rats of the age group 5-6 weeks were maintained on normal rat pellets ad libitum. Rats were divided into four groups viz. Groups I, II, III and IV.
as §1
Each group consisted of 5 animals. 30 mg/kg body weight of Adriamycin was administered intraperitoneally to animals in Groups II and III. […] 24 hours later, the beating hearts of the animals were excised by decapitation. The heart tissue was washed in ice cold saline twice, weighed and frozen for assaying Superoxide Dismutase activity.
Briefly, 200 mg of rat myocardial tissue was excised and homogenized in 2 ml of ice cold Tris sucrose buffer (pH 7.4). The homogenate was centrifuged at 10000 rpm, at 4° C. for 10 minutes, and the supernatent carefully aspirated and collected. For each experiment, 1.2 ml of sodium pyrophosphate buffer was taken in clean glass tubes. To this 100 ul of 186 uM Phenazine methosulphate solution, 300 ul of a 300 uM solution of Nitroblue tetrazolium and 600 ul of double distilled water was added and mixed well. 600 ul of the supernatent obtained earlier was added per tube. A solution of NADH of the concentration 780 uM was freshly prepared for the experiments. The reaction in the tubes was initiated by the addition of 200 ul of a 780 uM solution of NADH per tube. The tubes were incubated for 90 seconds at room temperature. The reaction was stopped by the addition of 1 ml of 100% glacial acetic acid per tube and the absorbance measured spectrophotometrically at 560 nM. All experiments were carried out in triplicates. The control experiments contained only ice cold Tris Sucrose buffer (pH 7.4) treated identically. The standard tubes contained the enzyme Superoxide Dimutase dissolved in double distilled water in concentrations ranging from 0.1 U to 20 Units treated identically as above. The enzyme activity in the tissue homogenates was quantitated by rate of decrease in optical density at 560 nm, and expressed as units/mg protein. The Superoxide Dismutase activity was calculated for the cardiac tissues of the animals comprising Groups I, II, III and IV.

[3] = system: Adriamycin treated rat liver tissue; details: for LP (lipid peroxidation), liver: 24 hours
Method: as §4, §1
(§5) Group III: Animals treated with 5-Methoxytryptamine and Adriamycin.
Group IV: Animals treated with 5-Methoxytryptamine
Each group consisted of 5 animals. 30 mg/kg body weight of Adriamycin was administered intraperitoneally to animals in Groups II and III. The animals comprising group III, were injected intraperitoneally with 5-Methoxytryptamine in concentrations ranging from 8.5-35 mg/kg body weight 30 minutes prior to the Adriamycin treatment. The animals comprising group IV, were injected intraperitoneally with 5-Methoxytryptamine in concentrations ranging from 8.5-35 mg/kg body weight. 24 hours later, the liver tissue of the animals were excised. The liver tissue was washed in ice cold saline twice, weighed and snap frozen at −70° C. for assaying for Lipid peroxidation.
Briefly 200 mg of the rat liver tissue was excised and homogenized in 2 ml of ice cold 10% Trichloro acetic acid buffer (TCA) buffer. To 200 ul of the homogenate thus obtained, 200 ul of 8.1% SDS, 1.5 ml of 20% Acetic acid, 1.5 ml of 0.8% of Thiobarbituric acid (TBA) and 1.0 ml of water was added in glass test tubes. The tubes were heated at 95° C. for 60 minutes. The mixture was cooled and diluted with 1 ml of double distilled water. A mixture of n-butanol and pyridine was prepared fresh in the ratio of 15:1 respectively. 5 ml of the n-butanol-pyridine mix was added to each tube containing the liver tissue homogenates. The tubes were centrifuged at 3000 rpm for 10 minutes at 4° C. 200 ul of the colored liquid was collected from the interphase of the aqueous and organic layers and the absorbance was measured spectrophotometrically at 532 nm. The control experiments contained only the TCA buffer treated similarly. The standard tubes contained Malonaldehyde in concentrations ranging from 2.5-25 uM. Malonaldehyde was dissolved in double distilled water. All experiments were carried out in triplicates. The extent of lipid peroxidation in the liver homogenates was expressed as uM/gm of the liver tissue. The extent of lipid peroxidation was calculated for the liver tissues of the animals comprising Groups I, II, III and IV.

[4] = system: Adriamycin treated rat myocardium; details: for LP (lipid peroxidation), myocardium: 24 hours
Excerpt: The effect of 5-Methoxytryptamine on lipid peroxidation in Adriamycin treated myocardial tissue was quantitated by Thiobarbituric acid reactive substances based assay as described (Uchiyama and Mihara, M., Anal. Biochem. 86, 271-278, 1978). Briefly male Wistar rats of the age group 5-6 weeks were maintained on normal rat pellets ad libitum. Rats were divided into four groups viz Groups I, II, III and IV.
Group II, Animals treated with Adriamycin
as §5, §3
Each group consisted of 5 animals. 30 mg/kg body weight of Adriamycin was administered intraperitoneally to animals in Groups II and III. The animals comprising group III, were injected intraperitoneally with 5-Methoxytryptamine in concentration ranging from 8.5-35 mg/kg body weight 30 minutes prior to the Adriamycin treatment. The animals comprising group IV, were injected intraperitoneally with 5-Methoxytryptamine in concentration ranging from 8.5-35 mg/kg body weight. 24 hours later, the beating hearts of the animals were excised by decapitation. The heart tissue was washed in ice cold saline twice, weighed and snap frozen at −70° C. for assaying for Lipid peroxidation.
Briefly 200 mg of the live rat myocardial tissue was excised and homogenized in 2 ml of ice cold 10% Trichloro acetic acid buffer (TCA) buffer. To 200 ul of the homogenate thus obtained, 200 ul of 8.1% SDS, 1.5 ml of 20% Acetic acid, 1.5 ml of 0.8% of Thiobarbituric acid (TBA) and 1.0 ml of water was added in glass test tubes. The tubes were heated at 95° C. for 60 minutes. The mixture was cooled and diluted with 1 ml of double distilled water. A mixture of n-butanol and pyridine was prepared fresh in the ratio of 15:1 respectively. 5 ml of the n-butanol-pyridine mix was added to each tube containing the cardiac tissue homogenates. The tubes were centrifuged at 3000 rpm for 10 minutes at 4° C. 200 ul of the coloured liquid was collected from at the interphase of the aqueous and organic layers and the absorbance was measured spectrophotometrically at 532 nm. The control experiments contained only the TCA buffer treated similarly. The standard tubes contained Malonaldehyde in concentrations ranging from 2.5-25 uM. Malonaldehyde was dissolved in double distilled water. All experiments were carried out in triplicates. The extent of lipid peroxidation in the cardiac homogenates was expressed as uM/gm of the cardiac tissue. The extent of lipid peroxidation was calculated for the cardiac tissues of the animals comprising Groups I, II, III and IV.

[5] = DPPH free radical scavenging assay in vitro; assay type: biochemical; details: for Mean percent Radical scavenging: DPPH, 5 minutes
Method: The free radical scavenging potential of 5-Methoxytryptamine was evaluated by the 1,1 diphenyl-2 picryl hydrazyl (DPPH) assay as described (Hycon, Lee et al, Arch. Pharm. Res. 19 (3), 223-227). […] 5-Methoxytryptamine was dissolved in 3.5% ethanol in normal saline and screened for its radical scavenging activity in concentration ranging from 1-1000 ug/ml. 100 ul of 0.2 mM DPPH was incubated with 100 ul of varying concentrations of 5-Methoxy tryptamine in 96 well tissue culture plates for 20 seconds at room temperature. All experiments were carried out in triplicates. 3.5% ethanol in normal saline was similarly incubated with 0.2 mM DPPH in control experiments for evaluating the effect of the vehicle on radical scavenging. The change in absorbance of DPPH incubated with varying concentrations of 5-Methoxy tryptamine of the vehicle was read at 517 nm for every 60 secs for 5 minutes. The absorbance of 0.2 mM DPPH taken after incubating for 5 minutes at room temperature was the blank O.D. The percent free radical scavenging ability of 5-Methoxy tryptamine was calculated as defined below. Percent Free Radical scavenging=Blank OD at 5 minutes−Sample OD at 5 minutes×100/Blank OD at 5 minutes

[6] = system: Adriamycin treated animals; remark: listed apart in the source
Method: The effect of 5-Methoxy tryptamine on circulating CK-MB levels was quantitated as described. Briefly male Wistar rats of the age group 5-6 weeks were maintained on normal rat pellets ad libidum. Rats were divided into four groups viz. Groups I, II, III and IV.
as §1, §2
Group IV: Animals treated with 5-Methoxytryptamine.
Each group consisted of 6 animals. 5 mg/kg of Adriamycin was administered intraperitoneally to animals of groups II and III as two equal divided doses once every seven days. The animals comprising Group III were injected intraperitoneally with 17.5 mg/kg of 5-Methoxytryptamine, as seven equal doses given every alternate day. The animals of the group III were injected with 5-Methoxytryptamine, 30 minutes prior to the Adriamycin injection. The animals comprising Group IV were treated with 17.5 mg/kg of 5-Methoxytryptamine as seven equal doses, given every alternate day. At the 41st day of the study, blood was collected from the retroorbital vein of all the animals in the study. The blood was kept at room temperature for 15 minutes, and spun at 3000 rpm for 15 minutes. […] The quantitation was carried out by kits procured from Bayer Diagnostics using RA 50 Chemistry Analyzer (Bayer Diagnostics), as per the manufacturers instructions.

[7] = Group IV: 5-Methoxytryptamine 17.5 mg/kg as seven doses every alternate day, alone, serum, day 41
[8] = 8.5-35 mg/kg, 30 mg/kg doxorubicin
[9] = Group IV A: 5 MT 8.5 mg/kg i.p. alone
[10] = Group IV B: 5 MT 17 mg/kg i.p. alone
[11] = Group IV C: 5 MT 35 mg/kg i.p. alone

## COc1ccc2[nH]cc(CCN)c2c1 [5-Methoxytryptamine]
[1]; 17.5 mg/kg, Adriamycin 5 mg/kg
  Effect on LDH levels in Adriamycin treated animals: reduces the LDH levels
[1]; [7]
  LDH: 1009 ± 26 U/L
Human tumour cell lines
  Effect of addition on ED50 values of the cytotoxicity of Adriamycin: is not altered
[2]; 8.5-35 mg/kg alone
  Effect on Superoxide Dismutase activity in rat myocardium, alone: did not alter the Superoxide Dismutase activity
[2]; [8]
  Effect on Superoxide Dismutase activity in rat myocardium treated with Doxorubicin: increases the Superoxide Dismutase activity
[2]; [9]
  SOD (Superoxide Dismutase), myocardium: 32 ± 2.5 U/mg
[2]; [10]
  SOD (Superoxide Dismutase), myocardium: 30 ± 2.9 U/mg
[2]; [11]
  SOD (Superoxide Dismutase), myocardium: 34 ± 4.5 U/mg
[3]; 8.5-35 mg/kg alone
  Effect on lipid peroxidation in rat liver tissue, alone: does not alter the lipid peroxidation
[3]; [9]
  LP (lipid peroxidation), liver: 601 ± 16.5 µmol/g
[3]; [10]
  LP (lipid peroxidation), liver: 625 ± 15.5 µmol/g
[3]; [11]
  LP (lipid peroxidation), liver: 630 ± 16.3 µmol/g
[4]; 8.5-35 mg/kg alone
  Effect on lipid peroxidation in rat myocardial tissue, alone: did not alter the lipid peroxidation
[4]; [8]
  Effect on lipid peroxidation in rat myocardial tissue treated with doxorubicin: inhibits the lipid peroxidation
[4]; [9]
  LP (lipid peroxidation), myocardium: 535 ± 12.5 µmol/g
[4]; [10]
  LP (lipid peroxidation), myocardium: 500 ± 14.5 µmol/g
[4]; [11]
  LP (lipid peroxidation), myocardium: 513 ± 12.3 µmol/g
[5]; 31 ug/ml
  Mean percent Radical scavenging: 10 ± 4.3%
[5]; 62.5 ug/ml
  Mean percent Radical scavenging: 25 ± 5.0%
[5]; 125 ug/ml
  Mean percent Radical scavenging: 75.4 ± 5.5%
[5]; 250 ug/ml
  Mean percent Radical scavenging: 85.24 ± 4.8%
[5]; 500 ug/ml
  Mean percent Radical scavenging: 87.4 ± 5.0%
[5]; 1000 ug/ml
  Mean percent Radical scavenging: 88.25% and 88.25 ± 5.1%
[5]; DPPH in vitro
  Concentration range in which free radicals are scavenged: 31 to 1000 µg/mL
[6]; 17.5 mg/kg, Adriamycin 5 mg/kg
  Effect on CK-MB levels in Adriamycin treated animals: reduces the CK-MB levels
[6]; [7]
  CK - MB: 379 ± 26 U/L
